# Patent US8354443B2, “Cyclopropane indolinone derivatives” (Hoffmann-La Roche Inc., priority 2009, dated 2013)
# System: recombinant AMPK proteins (α1β1γ1, α2β1γ1, α1(1-335), α1(1-394) or α2(1-394))
# Assay: Scintillation Proximity Assay (AMPK activation)
# Format: biochemical, human
# Settings: effective concentration of activator for 50% of maximal enzyme activity; 2 hr at 30° C.; AMPK form not specified
# Source text: Recombinant human AMPK α1β1γ1, α2β1γ1 or AMPK a subunit truncations α1 (1-335), α1 (1-394) and α2(1-394) were constructed, expressed and purified as described previously (Pang, T., Zhang, Z. S., Gu, M., Qiu, B. Y., Yu, L. F., Cao, P. R., Shao, W., Su, M. B., Li, J. Y., Nan, F. J., and Li, J. (2008) or purchased from Invitrogen (San Diego, Calif., U.S.A.). Rat liver AMPK heterotrimer enzyme was obtained from Upstate (Billerica, Mass., U.S.A.).
# Before the Scintillation Proximity Assay (SPA) assay, 200 nM recombinant AMPK proteins (α1β1γ1, α2β1γ1, α1(1-335), α1(1-394) or α2(1-394)) were fully phosphorylated as described previously (Pang et al., 2008). SPA reactions were performed in 96-well plates at a final volume of 50 μl containing 20 mM Tris-HCl pH 7.5, 5 mM MgCl2, 1 mM DTT, 2 μM biotin-SAMS, 2 μM ATP, 0.2 μCi/well [γ-^33P]ATP, and various amount of activator. Reactions were initiated by the addition of 50 nM recombinant AMPK proteins to the reaction solutions and incubated at 30° C. for 2 hr. After that, reactions were terminated by the addition of 40 μl stop solution containing 80 μg streptavidin-coated SPA beads per well, 50 mM EDTA, 0.1% Triton X-100 in PBS, pH 7.5 and incubated for 1 hr. Finally, a 160 μl suspension solution containing 2.4 M CsCl, 50 mM EDTA, and 0.1% Triton X-100 in PBS (pH 7.5) was added to the reaction solution to suspend SPA beads completely. SPA signals were determined with a Wallac MicroBeta plate counter (PerkinElmer) 30 min later for calculation of the amount of product formed. The amount of products formed in 2 hr was plotted against activator concentrations to determine the effective concentration of the activator (EC50) required for 50% of maximal enzyme activity.
row,EC50 [nM],Compound
1,2770,"O=C(O)c1cccc(CN2C(=O)[C@]3(C[C@@H]3c3ccccc3F)c3ccccc32)c1 (mixture of isomers) [Example 8, (1S,2R) and (1R,2S)-3-((2-(2-fluorophenyl)-2′-oxospiro[cyclopropane-1,3′-indoline]-1′-yl)methyl)benzoic acid]"
2,1190,"O=C(O)c1cccc(CN2C(=O)[C@]3(C[C@H]3c3ccccc3F)c3ccccc32)c1 (mixture of isomers) [Example 9, (1S,2S) and (1R,2R)-3-((2-(2-fluorophenyl)-2′-oxospiro[cyclopropane-1,3′-indoline]-1′-yl)methyl)benzoic acid]"
3,1090,"CN(C)[C@H]1CCN(CCN2C(=O)[C@]3(C[C@@H]3c3ccc(Cl)cc3)c3ccccc32)C1 (mixture of isomers) [Example 76, (1S,2R)-2-(4-chlorophenyl)-1′-(2-((S)-3-(dimethylamino)pyrrolidin-1-yl)ethyl)spiro[cyclopropane-1,3′-indolin]-2′-one and (1R,2S)-2-(4-chlorophenyl)-1′-(2-((S)-3-(dimethylamino)pyrrolidin-1-yl)ethyl)spiro[cyclopropane-1,3′-indolin]-2′-one]"
4,2170,"CN(C)[C@@H]1CCN(CCN2C(=O)[C@@]3(C[C@H]3c3ccc(Cl)cc3)c3ccccc32)C1 (mixture of isomers) [Example 77, (1S,2R)-2-(4-chlorophenyl)-1′-(2-((R)-3-(dimethylamino)pyrrolidin-1-yl)ethyl)spiro[cyclopropane-1,3′-indolin]-2′-one and (1R,2S)-2-(4-chlorophenyl)-1′-(2-((R)-3-(dimethylamino)pyrrolidin-1-yl)ethyl)spiro[cyclopropane-1,3′-indolin]-2′-one]"
5,1100,"CC1CN(CCNCCN2C(=O)[C@]3(C[C@@H]3c3ccc(Cl)cc3)c3ccccc32)CC(C)O1 (mixture of isomers) [Example 130, (1S,2R) and (1R,2S)-2-(4-chlorophenyl)-1′-(2-(2-(2,6-dimethylmorpholino)ethylamino)ethyl) Spiro[cyclopropane-1,3′-indolin]-2′-one]"
6,2570,"O=C(O)c1cccc(CN2C(=O)[C@@]3(C[C@H]3c3ccc(Cl)cc3)c3ccccc32)c1 (racemic) [Example 1, (1R,2S) and (1S,2R)-3-((2-(4-chlorophenyl)-2′-oxospiro[cyclopropane-1,3′-indoline]-1′-yl)methyl)benzoic acid]"
7,960,"O=C(O)c1cccc(CN2C(=O)[C@@]3(C[C@@H]3c3ccc(Cl)cc3)c3ccccc32)c1 (racemic) [Example 2, (1R,2R) and (1S,2S)-3-((2-(4-chlorophenyl)-2′-oxospiro[cyclopropane-1,3′-indoline]-1′-yl)methyl)benzoic acid]"
8,2980,"O=C(O)c1cccc(CN2C(=O)[C@]3(C[C@@H]3c3cccc(Cl)c3)c3ccccc32)c1 (racemic) [Example 3, (1S,2R) and (1R,2S)-3-((2-(3-chlorophenyl)-2′-oxospiro[cyclopropane-1,3′-indoline]-1′-yl)methyl)benzoic acid]"
9,5300,"N#Cc1ccc([C@H]2C[C@]23C(=O)N(Cc2cccc(C(=O)O)c2)c2ccccc23)cc1 (racemic) [Example 5, (1S,2R) and (1R,2S)-3-((2-(4-cyanophenyl)-2′-oxospiro[cyclopropane-1,3′-indoline]-1′-yl)methyl)benzoic acid]"
10,7100,"O=C(O)c1cc(CN2C(=O)[C@]3(C[C@@H]3c3ccc(Cl)cc3)c3ccccc32)ccc1Cl (racemic) [Example 6, (1S,2R) and (1R,2S)-2-chloro-5-((2-(4-chlorophenyl)-2′-oxospiro[cyclopropane-1,3′-indoline]-1′-yl)methyl)benzoic acid]"
11,10800,"CS(=O)(=O)c1ccc([C@H]2C[C@]23C(=O)N(Cc2cccc(C(=O)O)c2)c2ccccc23)cc1 (racemic) [Example 7, (1S,2R) and (1R,2S)-3-((2-(4-(methylsulfonyl)phenyl)-2′-oxospiro[cyclopropane-1,3′-indoline]-1′-yl)methyl)benzoic acid]"
12,2020,"O=C(O)c1cccc(CN2C(=O)[C@]3(C[C@@H]3c3cccc(F)c3)c3ccccc32)c1 (racemic) [Example 10, (1S,2R) and (1R,2S)-3-((2-(3-fluorophenyl)-2′-oxospiro[cyclopropane-1,3′-indoline]-1′-yl)methyl)benzoic acid]"
13,2040,"O=C(O)c1cccc(CN2C(=O)[C@]3(C[C@H]3c3cccc(F)c3)c3ccccc32)c1 (racemic) [Example 11, (1S,2S) and (1R,2R)-3-((2-(3-fluorophenyl)-2′-oxospiro[cyclopropane-1,3′-indoline]-1′-yl)methyl)benzoic acid]"
14,2360,"O=C(O)c1cccc(CN2C(=O)[C@]3(C[C@H]3c3ccccc3C(F)(F)F)c3ccccc32)c1 (racemic) [Example 12, (1S,2S) and (1R,2R)-3-((2′-oxo-2-(2-(trifluoromethyl)phenyl)-spiro[cyclopropane-1,3′-indoline]-1′-yl)methyl)benzoic acid]"
15,2030,"O=C(O)c1cccc(CN2C(=O)[C@@]3(C[C@@H]3c3ccc(Cl)cc3)c3cc(Cl)ccc32)c1 (racemic) [Example 14, (1R,2R) and (1S,2S)-3-((5′-chloro-2-(4-chlorophenyl)-2′-oxospiro[cyclopropane-1,3′-indoline]-1′-yl)methyl)benzoic acid]"
16,2480,"O=C(O)c1cccc(CN2C(=O)[C@@]3(C[C@@H]3c3ccc(Cl)cc3)c3cc(Br)ccc32)c1 (racemic) [Example 15, (1R,2R) and (1S,2S)-3-((5′-bromo-2-(4-chlorophenyl)-2′-oxospiro[cyclopropane-1,3′-indoline]-1′-yl)methyl)benzoic acid]"
17,2720,"O=C(O)c1cccc(CN2C(=O)[C@]3(C[C@@H]3c3ccc(Cl)cc3)c3cc(Br)ccc32)c1 (racemic) [Example 16, (1S,2R) and (1R,2S)-3-((5′-bromo-2-(4-chlorophenyl)-2′-oxospiro[cyclopropane-1,3′-indoline]-1′-yl)methyl)benzoic acid]"
18,1630,"N#Cc1ccc([C@@H]2C[C@]23C(=O)N(Cc2cccc(C(=O)O)c2)c2ccccc23)cc1 (racemic) [Example 17, (1S,2S) and (1R,2R)-3-((2-(4-cyanophenyl)-2′-oxospiro[cyclopropane-1,3′-indoline]-1′-yl)methyl)benzoic acid]"
19,1660,"COc1cccc([C@H]2C[C@]23C(=O)N(Cc2cccc(C(=O)O)c2)c2ccccc23)c1 (racemic) [Example 18, (1S,2R) and (1R,2S)-3-((2-(3-methoxyphenyl)-2′-oxospiro[cyclopropane-1,3′-indoline]-1′-yl)methyl)benzoic acid]"
20,1420,"COc1cccc([C@@H]2C[C@]23C(=O)N(Cc2cccc(C(=O)O)c2)c2ccccc23)c1 (racemic) [Example 19, (1S,2S) and (1R,2R)-3-((2-(3-methoxyphenyl)-2′-oxospiro[cyclopropane-1,3′-indoline]-1′-yl)methyl)benzoic acid]"
21,900,"COc1ccc([C@@H]2C[C@]23C(=O)N(Cc2cccc(C(=O)O)c2)c2ccccc23)cc1 (racemic) [Example 20, (1S,2S) and (1R,2R)-3-((2-(4-methoxyphenyl)-2′-oxospiro[cyclopropane-1,3′-indoline]-1′-yl)methyl)benzoic acid]"
22,2030,"COc1ccc([C@H]2C[C@]23C(=O)N(Cc2cccc(C(=O)O)c2)c2ccccc23)cc1 (racemic) [Example 21, (1S,2R) and (1R,2S)-3-((2-(4-methoxyphenyl)-2′-oxospiro[cyclopropane-1,3′-indoline]-1′-yl)methyl)benzoic acid]"
23,11200,"O=C(O)c1cccc(CN2C(=O)[C@]3(C[C@@H]3c3ccc(Cl)cc3)c3cc(F)ccc32)c1 (racemic) [Example 22, (1S,2R) and (1R,2S)-3-((2-(4-chlorophenyl)-5′-fluoro-2′-oxospiro[cyclopropane-1,3′-indoline]-1′-yl)methyl)benzoic acid]"
24,1660,"O=C(O)c1cccc(CN2C(=O)[C@]3(C[C@H]3c3ccc(Cl)cc3)c3cc(F)ccc32)c1 (racemic) [Example 23, (1S,2S) and (1R,2R)-3-((2-(4-chlorophenyl)-5′-fluoro-2′-oxospiro[cyclopropane-1,3′-indoline]-1′-yl)methyl)benzoic acid]"
25,5750,"O=C(O)c1cccc(CN2C(=O)[C@]3(C[C@@H]3c3ccc(F)cc3)c3ccccc32)c1 (racemic) [Example 24, (1S,2R) and (1R,2S)-3-((-2-(4-fluorophenyl)-2′-oxospiro[cyclopropane-1,3′-indoline]-1′-yl)methyl)benzoic acid]"
